Measured values published in patent US8796249B2, “TGR5 modulators and methods of use thereof” (Intercept Pharmaceuticals, Inc., priority 2008, dated 2014).
Structures can show the parent of a compound that is named as a salt. Where two headings read alike, the source gives them in different places.

Experiments:
CAR = molecular target: T1, CAR (Homo sapiens, UniProt Q14994); test: CAR coactivator recruitment (Lanthascreen); type: biochemical
T1 sequence (Q14994 1-352): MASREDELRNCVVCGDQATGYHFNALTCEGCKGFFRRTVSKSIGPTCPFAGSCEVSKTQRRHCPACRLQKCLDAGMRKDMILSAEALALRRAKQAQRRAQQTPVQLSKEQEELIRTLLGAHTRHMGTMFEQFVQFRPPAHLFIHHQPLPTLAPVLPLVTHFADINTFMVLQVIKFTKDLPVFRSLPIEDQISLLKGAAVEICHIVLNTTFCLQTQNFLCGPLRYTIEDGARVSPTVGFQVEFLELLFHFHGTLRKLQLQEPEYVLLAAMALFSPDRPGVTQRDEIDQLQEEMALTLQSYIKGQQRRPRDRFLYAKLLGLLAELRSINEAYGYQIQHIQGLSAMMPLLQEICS
Method: (§1) The selectivity of compounds of the invention was evaluated using assay methods known in the art. Specifically, the following assay methods were used: • FXR and LXR: Coactivator Recruitment (alphascreen); • TGR5: cAMP level on human intestinal cell line (NCI-H716); • PXR: Ligands Competition assay (Binding Assay) • CAR: Coactivator Recruitment (Lanthascreen)

hFXR = molecular target: T2, hFXR (Homo sapiens, UniProt Q96RI1); test: Alphascreen coactivator recruitment assay on hFXR; type: biochemical
T2 sequence (Q96RI1 1-486): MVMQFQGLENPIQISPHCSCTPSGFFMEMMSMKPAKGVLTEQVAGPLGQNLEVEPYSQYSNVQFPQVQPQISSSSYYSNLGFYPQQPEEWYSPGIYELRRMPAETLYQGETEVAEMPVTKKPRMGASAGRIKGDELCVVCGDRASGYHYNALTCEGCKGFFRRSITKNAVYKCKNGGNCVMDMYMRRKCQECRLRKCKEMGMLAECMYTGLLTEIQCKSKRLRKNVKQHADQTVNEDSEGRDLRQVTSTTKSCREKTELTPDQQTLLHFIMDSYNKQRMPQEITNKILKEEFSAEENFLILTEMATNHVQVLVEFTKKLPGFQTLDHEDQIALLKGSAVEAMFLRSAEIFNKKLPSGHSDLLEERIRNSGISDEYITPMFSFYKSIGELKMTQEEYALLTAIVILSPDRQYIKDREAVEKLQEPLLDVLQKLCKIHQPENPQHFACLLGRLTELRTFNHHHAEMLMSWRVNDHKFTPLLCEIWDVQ
Method: as §1

hTGR5 [1] = molecular target: T3, hTGR5 (Homo sapiens, UniProt Q8TDU6); test: FRET-cAMP on TGR5 over-expressing HEH293 cells; type: cell-based
T3 sequence (Q8TDU6 1-330): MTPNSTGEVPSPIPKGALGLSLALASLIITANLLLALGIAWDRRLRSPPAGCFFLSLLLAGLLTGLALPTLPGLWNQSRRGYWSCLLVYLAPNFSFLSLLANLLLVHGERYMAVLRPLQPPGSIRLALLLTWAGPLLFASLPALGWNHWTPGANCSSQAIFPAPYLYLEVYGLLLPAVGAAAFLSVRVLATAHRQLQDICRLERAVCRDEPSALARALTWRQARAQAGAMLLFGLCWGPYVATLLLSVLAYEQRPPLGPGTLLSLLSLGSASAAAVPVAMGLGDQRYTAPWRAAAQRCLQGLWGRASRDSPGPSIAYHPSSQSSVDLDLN
Method: Assays were performed in triplicate or quadruplicate for each condition. EC50 values were determined by probit analysis. […] After subtracting the average value of the basal (vehicle-treated) condition, values were applied to EC50 and/or efficacy determinations. Calculation of average EC50 and comparison of the EC50 between different compounds were done after transformation to logarithms.

PXR = molecular target: T4, PXR (Homo sapiens, UniProt O75469); test: PXR ligands competition assay (binding assay)
T4 sequence (O75469 1-434): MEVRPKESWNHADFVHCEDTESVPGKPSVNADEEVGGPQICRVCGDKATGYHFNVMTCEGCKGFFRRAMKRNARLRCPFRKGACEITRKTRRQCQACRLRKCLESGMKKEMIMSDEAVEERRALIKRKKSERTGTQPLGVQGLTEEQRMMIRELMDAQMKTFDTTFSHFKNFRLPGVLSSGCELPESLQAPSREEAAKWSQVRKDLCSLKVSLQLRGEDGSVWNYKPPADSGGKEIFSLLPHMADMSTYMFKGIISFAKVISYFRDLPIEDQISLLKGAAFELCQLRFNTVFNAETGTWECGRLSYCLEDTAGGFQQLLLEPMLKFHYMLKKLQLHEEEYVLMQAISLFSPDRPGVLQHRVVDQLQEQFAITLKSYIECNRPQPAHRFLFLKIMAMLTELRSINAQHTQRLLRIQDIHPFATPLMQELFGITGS
Method: as §1

hTGR5 [2] = molecular target: T3, hTGR5; test: FRET (cAMP) level in NCI-H716 human intestinal cell line; type: cell-based
Method: EC50 values were determined by probit analysis.
as §1

Water solubility = type: physicochemical; settings: for Ws (water solubility): BA as protonated species, 0.1 M HCl, pH 1, hs = highly soluble, not evaluated; for solubility in biological fluids: ionized even at low pH, physiological conditions
Method: Solid compound (BA) was suspended in 5 ml of 0.1 M HCl. […] The flow rate was 150 μl/min. The mass spectrometry acquisition was performed in the multiple reaction monitoring mode using the ESI source in negative ionization. Water solubility was expressed as μmol/liter.
The water solubility was measured for the insoluble protonated species of carboxylated bile acids at a pH 1.

bovine serum albumin = molecular target: T5, bovine serum albumin (Bos taurus, UniProt P02769); test: Albumin binding by equilibrium dialysis; type: in vitro ADME; settings: 100 μM BA in 5% bovine serum albumin-saline, pH 7.2
T5 construct: dissolved at a concentration of 100 μM in 5% bovine serum albumin-saline solution (pH 7.2); from tissue; host or cells: bovine serum (only from the protein's name)
Method: The extent of albumin binding was evaluated by equilibrium dialysis at a fixed BA-albumin ratio. BA was dissolved at a concentration of 100 μM in 5% bovine serum albumin-saline solution (pH 7.2) and left to stand for 24 h at 25° C. Two milliliters of this solution was dialyzed in cellulose sacs having a molecular weight cut-off of 12-14,000 against 25 ml of saline solution. The system was equilibrated by mechanical gently shaking for 72 h at 25° C. BA concentrations of the dialyzed solution (corresponding to the free unbound fraction) and of the starting solution were determined with HPLC-ESI-MS/MS in the same conditions of the previous analysis. The percent of albumin binding was calculate from the initial BA concentration and from the unbound concentration in the dialyzed fraction. All these compounds never less present an albumin binding compatible with a relatively fast hepatic uptake, similarly to natural occurring BA. Accordingly different kinetics (slower) of the liver uptake is expected.

[3] = NR selectivity table, coactivator recruitment (alphascreen), ref standard CDCA, read-out: FXR EC50
[4] = Table 1, reference standard CDCA, read-out: Alphascreen Assay hFXR EC50

T5 sequence (P02769 25-607): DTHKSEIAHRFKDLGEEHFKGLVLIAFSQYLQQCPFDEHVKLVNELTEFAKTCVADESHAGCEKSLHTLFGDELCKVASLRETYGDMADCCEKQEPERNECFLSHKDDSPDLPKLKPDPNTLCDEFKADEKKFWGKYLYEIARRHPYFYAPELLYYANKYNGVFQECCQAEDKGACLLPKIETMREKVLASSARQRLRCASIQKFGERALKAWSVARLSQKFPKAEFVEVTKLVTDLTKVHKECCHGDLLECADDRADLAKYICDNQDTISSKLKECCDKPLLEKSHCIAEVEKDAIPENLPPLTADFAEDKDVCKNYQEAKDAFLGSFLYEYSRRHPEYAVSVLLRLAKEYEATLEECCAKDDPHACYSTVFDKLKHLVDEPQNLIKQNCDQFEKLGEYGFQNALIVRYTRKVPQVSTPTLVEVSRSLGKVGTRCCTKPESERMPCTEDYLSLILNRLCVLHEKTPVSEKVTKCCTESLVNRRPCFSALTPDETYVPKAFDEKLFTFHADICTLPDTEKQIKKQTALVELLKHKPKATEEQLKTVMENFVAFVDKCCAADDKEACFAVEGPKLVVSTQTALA

CCC1C(O)C2C3CCC(C(C)CC(C)OS(=O)(=O)O)C3(C)CCC2C2(C)CCC(O)CC12 [Compound 2A, 3α,7α,23-trihydroxy-6α-ethyl-23(S)-methyl-24-nor-5β-cholan-23-sulfate Sodium Salt]
EC50 (CAR): 84000 nM
EC50 (hFXR; [3]): 140 nM
EC50 (hFXR; [4]): 145 ± 50 nM
EC50 (hTGR5 [1]): 25 nM
EC50 (PXR): 21000 nM
EC50 (hTGR5 [2]): 1600 ± 300 nM
Ws (water solubility) (Water solubility): hs
solubility in biological fluids (Water solubility): always soluble in all biological fluids
Albumin Binding (bovine serum albumin): 97%

CC[C@H]1[C@@H](O)[C@@H]2[C@H](C[C@H](O)[C@]3(C)[C@@H]([C@H](C)CCCS(=O)(=O)[O-])CC[C@@H]23)[C@@]2(C)CC[C@@H](O)C[C@@H]12.[Na+] [Compound 3A, 3α,7α,12α-trihydroxy-6α-ethyl-5β-cholan-24-sulfonate Sodium Salt]
melting point: > 280 °C
EC50 (CAR): > 250000 nM
EC50 (hFXR; [3]): 7000 nM
EC50 (hFXR; [4]): 7000 ± 3000 nM
EC50 (hTGR5 [1]): 11 nM
EC50 (PXR): 150000 nM
EC50 (hTGR5 [2]): 700 ± 200 nM
Ws (water solubility) (Water solubility): hs
solubility in biological fluids (Water solubility): always soluble in all biological fluids
Albumin Binding (bovine serum albumin): 81%
